From patent US7138361B2, “Herbicidal heterocycles” (E. I. du Pont de Nemours and Company, priority 2000, dated 2006)

Experiments:
Type in all cases: in vivo
Sunflower [1] = experiment: Test C preemergence; conditions: Rate 62 g/ha, scale 0 to 100
[2] = test system: wheat (Triticum aestivum); experiment: Test B postemergence; conditions: Rate 125 g/ha, scale 0 to 100, 0 no effect, 100 complete control
In short: (§1)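 Pre: seeded pots sprayed, chemical in non-phytotoxic solvent/surfactant mix. Post: plants 2–18 cm, 1–4 leaf, same formulation. Greenhouse 13–15 d; visual % control vs untreated, 0–100 scale.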

[3] = test system: giant foxtail (Setaria faberii); experiment: Test B postemergence; conditions: Rate 125 g/ha, scale 0 to 100, 0 no effect, 100 complete control
In short: as §1

[4] = test system: velvetleaf (Abutilon theophrasti); experiment: Test B postemergence; conditions: Rate 125 g/ha, scale 0 to 100, 0 no effect, 100 complete control
In short: as §1

corn (Zea mays) = experiment: Test B postemergence
In short: as §1

soybean (Glycine max) = experiment: Test C preemergence; conditions: for Plant response rating (0 to 100), Soybean: Rate 500 g/ha, visual evaluation after 12 to 14 days
In short: (§2)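 Compounds in non-phytotoxic solvent with surfactant applied preemergence to planted seeds and postemergence to plants at 1- to 4-leaf stage (2–18 cm). Kept in greenhouse 12–14 days, then visually rated against controls on a 0 (no effect) to 100 (complete control) scale.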

[5] = test system: goosegrass (Eleusine indica); experiment: Test C preemergence; conditions: for Plant response rating (0 to 100), Goosegrass: Rate 500 g/ha, visual evaluation after 12 to 14 days
In short: as §2

[6] = test system: pigweed (Amaranthus retroflexus); experiment: Test C preemergence; conditions: for Plant response rating (0 to 100), Pigweed: Rate 500 g/ha, visual evaluation after 12 to 14 days
In short: as §2

Nightshade = experiment: Test C preemergence
[7] = test system: common ragweed (Ambrosia elatior); experiment: Test C preemergence; conditions: for Plant response rating (0 to 100), Ragweed, Common: Rate 500 g/ha, visual evaluation after 12 to 14 days
In short: as §2

[8] = test system: bermudagrass (Cynodon dactylon); experiment: Test C preemergence; conditions: for Plant response rating (0 to 100 where 0 is no effect and 100 is complete control), Bermudagrass: Rate 500 g/ha, visual evaluation after 12 to 14 days
In short: as §2

[9] = test system: giant foxtail (Setaria faberii); experiment: Test C preemergence; conditions: for Plant response rating (0 to 100), Foxtail, Giant: Rate 500 g/ha, visual evaluation after 12 to 14 days
In short: as §2

Sunflower [10] = experiment: Test C preemergence; conditions: Rate 125 g/ha; scale 0 to 100, 0 no effect, 100 complete control
[11] = test system: velvetleaf (Abutilon theophrasti); experiment: Test C preemergence; conditions: for Plant response rating (0 to 100), Velvetleaf: Rate 500 g/ha, visual evaluation after 12 to 14 days
In short: as §2

[12] = test system: yellow nutsedge (Cyperus esculentus); experiment: Test C preemergence; conditions: for Plant response rating (0 to 100), Nutsedge: Rate 500 g/ha, visual evaluation after 12 to 14 days
In short: as §2

[13] = test system: crabgrass (Digitaria sanguinalis); experiment: Test C preemergence; conditions: for Plant response rating (0 to 100), Crabgrass: Rate 500 g/ha, visual evaluation after 12 to 14 days
In short: as §2

[14] = test system: woolly cupgrass (Eriochloa villosa); experiment: Test C preemergence; conditions: for Plant response rating (0 to 100), Cupgrass, Woolly: Rate 500 g/ha, visual evaluation after 12 to 14 days
In short: as §2

[15] = test system: cocklebur (Xanthium strumarium); experiment: Test C preemergence; conditions: for Plant response rating (0 to 100), Cocklebur: Rate 500 g/ha, visual evaluation after 12 to 14 days
In short: as §2

[16] = test system: lambsquarters (Chenopodium album); experiment: Test C preemergence; conditions: for Plant response rating (0 to 100), Lambsquarters: Rate 500 g/ha, visual evaluation after 12 to 14 days
In short: as §2

[17] = test system: johnsongrass (Sorghum halepense); experiment: Test C preemergence; conditions: for Plant response rating (0 to 100), Johnsongrass: Rate 500 g/ha, visual evaluation after 12 to 14 days
In short: as §2

[18] = Rate 125 g/ha, scale 0 to 100, 0 no effect, 100 complete control
[19] = Rate 500 g/ha, scale 0 to 100, 0 is no effect, 100 is complete control, 13 to 15 days
[20] = preemergence, Rate 62 g/ha, scale 0 to 100
[21] = preemergence, Rate 250 g/ha, scale 0 to 100, 0 no effect, 100 complete control
[22] = Rate 250 g/ha, scale 0 to 100, 0 no effect, 100 complete control

CCCC(C)c1ccn(C2OCN(c3cccc(OC(F)F)c3)C2=O)n1 (stereo not shown) [Compound 132]
Plant response rating, Sunflower (Sunflower [1]): 0 | Plant response rating, Wheat [2]: 0 | Plant response rating, Foxtail, Giant [3]: 0 | Plant response rating, Velvetleaf [4]: 0 | Plant response rating, Corn (corn (Zea mays); [18]): 0 | Plant response rating, Corn (corn (Zea mays); [19]): 0 | Plant response rating, Soybean (soybean (Glycine max); [18]): 20 | Plant response rating, Soybean (soybean (Glycine max); [20]): 20 | Plant response rating (0 to 100), Soybean (soybean (Glycine max); preemergence): 30 | Plant response rating, Soybean (soybean (Glycine max); [21]): 20 | Plant response rating, Goosegrass [5, 18]: 100 | Plant response rating, Goosegrass [5, 20]: 100 | Plant response rating (0 to 100), Goosegrass ([5]; preemergence): 100 | Plant response rating, Goosegrass [5, 21]: 100 | Plant response rating, Pigweed [6, 18]: 30 | Plant response rating, Pigweed [6, 20]: 0 | Plant response rating (0 to 100), Pigweed ([6]; preemergence): 100 | Plant response rating, Pigweed [6, 21]: 70 | Plant response rating, Nightshade (Nightshade; Rate 62 g/ha, scale 0 to 100): 0 | Plant response rating, Nightshade (Nightshade; [18]): 0 | Plant response rating, Nightshade (Nightshade; [22]): 20 | Plant response rating, Ragweed, Common [7, 18]: 0 | Plant response rating, Ragweed, Common [7, 20]: 0 | Plant response rating (0 to 100), Ragweed, Common ([7]; preemergence): 0 | Plant response rating, Ragweed, Common [7, 21]: 0 | Plant response rating, Bermudagrass [8, 18]: 100 | Plant response rating, Bermudagrass [8, 20]: 100 | Plant response rating (0 to 100 where 0 is no effect and 100 is complete control), Bermudagrass ([8]; preemergence): 100 | Plant response rating, Bermudagrass [8, 21]: 100 | Plant response rating, Foxtail, Giant [9, 18]: 70 | Plant response rating, Foxtail, Giant [9, 20]: 70 | Plant response rating (0 to 100), Foxtail, Giant ([9]; preemergence): 100 | Plant response rating, Foxtail, Giant [9, 21]: 100 | Plant response rating, Sunflower (Sunflower [10]): 20 | Plant response rating, Velvetleaf [11, 20]: 0 | Plant response rating (0 to 100), Velvetleaf ([11]; preemergence): 0 | Plant response rating, Velvetleaf [11, 21]: 0 | Plant response rating, Nutsedge [12, 18]: 0 | Plant response rating, Nutsedge [12, 20]: 0 | Plant response rating (0 to 100), Nutsedge ([12]; preemergence): 90 | Plant response rating, Nutsedge [12, 21]: 0 | Plant response rating, Crabgrass [13, 18]: 100 | Plant response rating, Crabgrass [13, 20]: 100 | Plant response rating (0 to 100), Crabgrass ([13]; preemergence): 100 | Plant response rating, Crabgrass [13, 21]: 100 | Plant response rating, Cupgrass, Woolly [14, 18]: 100 | Plant response rating, Cupgrass, Woolly [14, 20]: 90 | Plant response rating (0 to 100), Cupgrass, Woolly ([14]; preemergence): 100 | Plant response rating, Cupgrass, Woolly [14, 21]: 100 | Plant response rating, Cocklebur [15, 18]: 0 | Plant response rating (0 to 100), Cocklebur ([15]; preemergence): 0 | Plant response rating, Cocklebur [15, 21]: 0 | Plant response rating, Lambsquarters [16, 18]: 100 | Plant response rating, Lambsquarters [16, 20]: 100 | Plant response rating (0 to 100), Lambsquarters ([16]; preemergence): 100 | Plant response rating, Lambsquarters [16, 21]: 100 | Plant response rating, Johnsongrass [17, 18]: 80 | Plant response rating, Johnsongrass [17, 20]: 50 | Plant response rating (0 to 100), Johnsongrass ([17]; preemergence): 100 | Plant response rating, Johnsongrass [17, 21]: 100

CC(C)(C)c1ccn(C2OCN(c3cccc(OC(F)F)c3)C2=O)n1 (stereo not shown) [Compound 133]
Plant response rating, Sunflower (Sunflower [1]): 0 | Plant response rating, Wheat [2]: 0 | Plant response rating, Foxtail, Giant [3]: 0 | Plant response rating, Velvetleaf [4]: 0 | Plant response rating, Corn (corn (Zea mays); [18]): 0 | Plant response rating, Corn (corn (Zea mays); [19]): 0 | Plant response rating, Soybean (soybean (Glycine max); [18]): 0 | Plant response rating, Soybean (soybean (Glycine max); [20]): 0 | Plant response rating (0 to 100), Soybean (soybean (Glycine max); preemergence): 0 | Plant response rating, Soybean (soybean (Glycine max); [21]): 0 | Plant response rating, Goosegrass [5, 18]: 100 | Plant response rating, Goosegrass [5, 20]: 100 | Plant response rating (0 to 100), Goosegrass ([5]; preemergence): 100 | Plant response rating, Goosegrass [5, 21]: 100 | Plant response rating, Pigweed [6, 18]: 100 | Plant response rating, Pigweed [6, 20]: 50 | Plant response rating (0 to 100), Pigweed ([6]; preemergence): 100 | Plant response rating, Pigweed [6, 21]: 100 | Plant response rating, Nightshade (Nightshade; Rate 62 g/ha, scale 0 to 100): 0 | Plant response rating, Nightshade (Nightshade; [18]): 0 | Plant response rating, Nightshade (Nightshade; [22]): 20 | Plant response rating, Ragweed, Common [7, 18]: 0 | Plant response rating, Ragweed, Common [7, 20]: 0 | Plant response rating (0 to 100), Ragweed, Common ([7]; preemergence): 0 | Plant response rating, Ragweed, Common [7, 21]: 0 | Plant response rating, Bermudagrass [8, 18]: 100 | Plant response rating, Bermudagrass [8, 20]: 100 | Plant response rating (0 to 100 where 0 is no effect and 100 is complete control), Bermudagrass ([8]; preemergence): 100 | Plant response rating, Bermudagrass [8, 21]: 100 | Plant response rating, Foxtail, Giant [9, 18]: 100 | Plant response rating, Foxtail, Giant [9, 20]: 90 | Plant response rating (0 to 100), Foxtail, Giant ([9]; preemergence): 100 | Plant response rating, Foxtail, Giant [9, 21]: 100 | Plant response rating, Sunflower (Sunflower [10]): 0 | Plant response rating, Velvetleaf [11, 18]: 20 | Plant response rating, Velvetleaf [11, 20]: 0 | Plant response rating (0 to 100), Velvetleaf ([11]; preemergence): 30 | Plant response rating, Velvetleaf [11, 21]: 20 | Plant response rating, Nutsedge [12, 20]: 70 | Plant response rating (0 to 100), Nutsedge ([12]; preemergence): 90 | Plant response rating, Nutsedge [12, 21]: 90 | Plant response rating, Crabgrass [13, 18]: 100 | Plant response rating, Crabgrass [13, 20]: 100 | Plant response rating (0 to 100), Crabgrass ([13]; preemergence): 100 | Plant response rating, Crabgrass [13, 21]: 100 | Plant response rating, Cupgrass, Woolly [14, 18]: 100 | Plant response rating, Cupgrass, Woolly [14, 20]: 100 | Plant response rating (0 to 100), Cupgrass, Woolly ([14]; preemergence): 100 | Plant response rating, Cupgrass, Woolly [14, 21]: 100 | Plant response rating, Cocklebur [15, 18]: 0 | Plant response rating, Cocklebur [15, 20]: 0 | Plant response rating (0 to 100), Cocklebur ([15]; preemergence): 0 | Plant response rating, Cocklebur [15, 21]: 0 | Plant response rating, Lambsquarters [16, 18]: 100 | Plant response rating, Lambsquarters [16, 20]: 100 | Plant response rating (0 to 100), Lambsquarters ([16]; preemergence): 100 | Plant response rating, Lambsquarters [16, 21]: 100 | Plant response rating, Johnsongrass [17, 18]: 100 | Plant response rating, Johnsongrass [17, 20]: 80 | Plant response rating (0 to 100), Johnsongrass ([17]; preemergence): 100 | Plant response rating, Johnsongrass [17, 21]: 100
